Conditions: Liquid, Vibrating tube method

CCC(C)O (stereo not drawn) [butan-2-ol]
Conditions	mass density [kg/m3]
343.15 K, 47992 kPa	801
343.15 K, 49990 kPa	802.3
343.15 K, 52005 kPa	803.6
343.15 K, 55047 kPa	805.7
343.15 K, 57941 kPa	807.5
343.15 K, 59985 kPa	808.8
343.15 K, 61963 kPa	810
343.15 K, 64974 kPa	811.9
343.16 K, 2963 kPa	763.4
343.16 K, 66132 kPa	812.5
348.15 K, 99 kPa	755
348.15 K, 293 kPa	755.2
348.15 K, 632 kPa	755.6
348.15 K, 926 kPa	756
348.15 K, 1007 kPa	756
348.15 K, 1961 kPa	757.1
348.15 K, 2971 kPa	758.2
348.15 K, 4887 kPa	760.3
348.15 K, 6901 kPa	762.5
348.15 K, 8976 kPa	764.6
348.15 K, 10049 kPa	765.7
348.15 K, 12159 kPa	767.9
348.15 K, 15134 kPa	770.8
348.15 K, 18029 kPa	773.4
348.15 K, 20029 kPa	775.3
348.15 K, 22105 kPa	777.1
348.15 K, 24943 kPa	779.5
348.15 K, 27937 kPa	782.1
348.15 K, 29922 kPa	783.7
348.15 K, 32051 kPa	785.4
348.15 K, 33089 kPa	786.2
348.15 K, 33156 kPa	786.2
348.15 K, 34089 kPa	786.8
348.15 K, 35121 kPa	787.6
348.15 K, 37976 kPa	789.8
348.15 K, 40028 kPa	791.3
348.15 K, 42107 kPa	792.9
348.15 K, 44933 kPa	794.9
348.15 K, 48043 kPa	797.1
348.15 K, 50077 kPa	798.4
348.15 K, 52078 kPa	799.8
348.15 K, 54947 kPa	801.7
348.15 K, 58004 kPa	803.6
348.15 K, 60105 kPa	805.1
348.15 K, 62134 kPa	806.4
348.15 K, 64952 kPa	808.1
348.15 K, 66089 kPa	808.8
353.15 K, 101 kPa	749.7
353.15 K, 309 kPa	749.9
353.15 K, 488 kPa	750.2
353.15 K, 937 kPa	750.7
353.15 K, 997 kPa	750.8
353.15 K, 2036 kPa	752
353.15 K, 5052 kPa	755.5
353.15 K, 7035 kPa	757.6
353.15 K, 8919 kPa	759.7
353.15 K, 10172 kPa	761
353.15 K, 14941 kPa	765.8
353.15 K, 20147 kPa	770.7
353.15 K, 22188 kPa	772.6
353.15 K, 25053 kPa	775.1
353.15 K, 28045 kPa	777.7
353.15 K, 30122 kPa	779.4
353.15 K, 31946 kPa	780.9
353.15 K, 32790 kPa	781.6
353.15 K, 32795 kPa	781.5
353.15 K, 34025 kPa	782.5
353.15 K, 35037 kPa	783.3
353.15 K, 39961 kPa	787.1
353.15 K, 42055 kPa	788.7
353.15 K, 45025 kPa	790.9
353.15 K, 47906 kPa	793
353.15 K, 51988 kPa	795.8
353.15 K, 58003 kPa	799.9
353.15 K, 62118 kPa	802.6
353.15 K, 65015 kPa	804.4
353.15 K, 66227 kPa	805.2
353.16 K, 2973 kPa	753.1
353.16 K, 12072 kPa	762.9
353.16 K, 18090 kPa	768.8
353.16 K, 38061 kPa	785.7
353.16 K, 49998 kPa	794.4
353.16 K, 54972 kPa	797.7
353.16 K, 60035 kPa	801.2
358.15 K, 94 kPa	744.2
358.15 K, 317 kPa	744.5
358.15 K, 531 kPa	744.8
358.15 K, 912 kPa	745.3
358.15 K, 2002 kPa	746.6
358.15 K, 6978 kPa	752.5
358.15 K, 8996 kPa	754.7
358.15 K, 14843 kPa	760.9
358.15 K, 20099 kPa	766.2
358.15 K, 22025 kPa	767.9
358.15 K, 25009 kPa	770.7
358.15 K, 33055 kPa	777.5
358.15 K, 33103 kPa	777.7
358.15 K, 34173 kPa	778.4
358.15 K, 35154 kPa	779.2
358.15 K, 38016 kPa	781.5
358.15 K, 40036 kPa	783.1
358.15 K, 42070 kPa	784.7
358.15 K, 44944 kPa	786.8
358.15 K, 47921 kPa	789
358.15 K, 50038 kPa	790.5
358.15 K, 52069 kPa	792
358.15 K, 55065 kPa	794.1
358.15 K, 58024 kPa	796.1
358.15 K, 60060 kPa	797.4
358.15 K, 62217 kPa	798.9
358.15 K, 65051 kPa	800.7
358.15 K, 66079 kPa	801.3
358.16 K, 997 kPa	745.3
358.16 K, 2956 kPa	747.8
358.16 K, 4886 kPa	750.1
358.16 K, 10124 kPa	755.9
358.16 K, 11961 kPa	757.9
358.16 K, 17993 kPa	764.1
358.16 K, 27942 kPa	773.3
358.16 K, 30089 kPa	775.1
358.16 K, 32063 kPa	776.8
363.15 K, 99 kPa	738.7
363.15 K, 349 kPa	739
363.15 K, 512 kPa	739.3
363.15 K, 910 kPa	739.8
363.15 K, 3038 kPa	742.5
363.15 K, 12190 kPa	753.3
363.15 K, 25101 kPa	766.2
363.15 K, 30034 kPa	770.6
363.15 K, 33002 kPa	773.1
363.15 K, 33042 kPa	773.2
363.15 K, 34072 kPa	774
363.15 K, 40041 kPa	779
363.15 K, 42237 kPa	780.7
363.15 K, 44948 kPa	782.8
363.15 K, 48033 kPa	785.1
363.15 K, 50015 kPa	786.6
363.15 K, 52088 kPa	788.1
363.15 K, 55038 kPa	790.2
363.15 K, 57996 kPa	792.2
363.15 K, 60085 kPa	793.7
363.15 K, 62081 kPa	795
363.15 K, 65016 kPa	796.9
363.15 K, 66010 kPa	797.6
363.16 K, 1038 kPa	739.9
363.16 K, 2013 kPa	741.2
363.16 K, 5065 kPa	745
363.16 K, 7039 kPa	747.4
363.16 K, 8975 kPa	749.7
363.16 K, 10001 kPa	750.8
363.16 K, 14664 kPa	755.9
363.16 K, 17691 kPa	759
363.16 K, 20116 kPa	761.4
363.16 K, 22089 kPa	763.4
363.16 K, 28014 kPa	768.8
363.16 K, 32089 kPa	772.4
363.16 K, 35096 kPa	775
363.16 K, 37960 kPa	777.4

Source: the NIST ThermoML archive (doi:10.1021/acs.jced.5b00934)
